Test results taken from PubChem BioAssay (NCI).
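In this assay, cells in 96-well plates receive the compound at five concentrations for 48 hours. Endpoints are linearly interpolated between the surrounding concentrations. TGI is the concentration that stops growth completely.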

Columns and labels:
Assay in all cases: NCI tumour cell line growth inhibition, 48 h
[1] = system: A498 renal
[2] = system: A549 NSCLC
[3] = system: ACHN renal
[4] = system: BT-549 breast
[5] = system: CAKI-1 renal
[6] = system: CCRF-CEM leukemia
[7] = system: COLO 205 colon
[8] = system: DU-145 prostate
[9] = system: EKVX NSCLC
[10] = system: HCT-116 colon
[11] = system: HCT-15 colon
[12] = system: HOP-62 NSCLC
[13] = system: HOP-92 NSCLC
[14] = system: HS 578T breast
[15] = system: HT29 colon
[16] = system: IGROV1 ovarian
[17] = system: K-562 leukemia
[18] = system: KM12 colon
[19] = system: LOX IMVI melanoma
[20] = system: M14 melanoma
[21] = system: MALME-3M melanoma
[22] = system: MCF7 breast
[23] = system: MDA-MB-231 breast
[24] = system: MDA-MB-435
[25] = system: MDA-N
[26] = system: MOLT-4 leukemia
[27] = system: NCI-H226 lung
[28] = system: NCI-H23 lung
[29] = system: NCI-H522 lung
[30] = system: NCI/ADR-RES ovarian
[31] = system: OVCAR-3 ovarian
[32] = system: OVCAR-4 ovarian
[33] = system: OVCAR-5 ovarian
[34] = system: OVCAR-8 ovarian
[35] = system: PC-3 prostate
[36] = system: RPMI-8226 leukemia
[37] = system: RXF 393 renal
[38] = system: SF-268 CNS
[39] = system: SF-295 CNS
[40] = system: SF-539 CNS
[41] = system: SK-MEL-2 melanoma
[42] = system: SK-MEL-28 melanoma
[43] = system: SK-OV-3 ovarian
[44] = system: SNB-19 CNS
[45] = system: SNB-75 CNS
[46] = system: SR leukemia
[47] = system: SW-620 colon
[48] = system: T-47D breast
[49] = system: TK-10 renal
[50] = system: U251 CNS
[51] = system: UACC-62 melanoma
[52] = system: UO-31 renal
[53] = system: 786-0 renal
[54] = system: HCC-2998 colon
[55] = system: HL-60(TB) leukemia
[56] = system: NCI-H460 lung
[57] = system: SK-MEL-5 melanoma
[58] = system: SN12C renal
[59] = system: UACC-257 melanoma

Structure (SMILES): CC(C)(C)c1cc(C2NC(=O)NC2=O)cc(C(C)(C)C)c1O (stereo unspecified)
- TGI [1]: > 100 µM
- TGI [2]: > 100 µM
- TGI [3]: > 100 µM
- TGI [4]: > 100 µM
- TGI [5]: > 100 µM
- TGI [6]: > 100 µM
- TGI [7]: > 100 µM
- TGI [8]: > 100 µM
- TGI [9]: > 100 µM
- TGI [10]: 84.5 µM
- TGI [11]: > 100 µM
- TGI [12]: > 100 µM
- TGI [13]: > 100 µM
- TGI [14]: 69.8 µM
- TGI [15]: > 100 µM
- TGI [16]: > 100 µM
- TGI [17]: > 100 µM
- TGI [18]: 48.4 µM
- TGI [19]: > 100 µM
- TGI [20]: > 100 µM
- TGI [21]: > 100 µM
- TGI [22]: 83.3 µM
- TGI [23]: > 100 µM
- TGI [24]: > 100 µM
- TGI [25]: > 100 µM
- TGI [26]: > 100 µM
- TGI [27]: > 100 µM
- TGI [28]: > 100 µM
- TGI [29]: > 100 µM
- TGI [30]: > 100 µM
- TGI [31]: > 100 µM
- TGI [32]: > 100 µM
- TGI [33]: > 100 µM
- TGI [34]: > 100 µM
- TGI [35]: > 100 µM
- TGI [36]: > 100 µM
- TGI [37]: 95.7 µM
- TGI [38]: > 100 µM
- TGI [39]: > 100 µM
- TGI [40]: > 100 µM
- TGI [41]: > 100 µM
- TGI [42]: > 100 µM
- TGI [43]: > 100 µM
- TGI [44]: > 100 µM
- TGI [45]: 84.4 µM
- TGI [46]: > 100 µM
- TGI [47]: > 100 µM
- TGI [48]: > 100 µM
- TGI [49]: 95.2 µM
- TGI [50]: > 100 µM
- TGI [51]: > 100 µM
- TGI [52]: > 100 µM

Structure (SMILES): Cc1ccc(Nc2nc(NS(=O)(=O)c3cc(C)c(Cl)cc3S)n[nH]2)cc1
- TGI [53]: > 100 µM
- TGI [1]: > 100 µM
- TGI [2]: > 100 µM
- TGI [3]: > 100 µM
- TGI [4]: > 100 µM
- TGI [5]: > 100 µM
- TGI [6]: > 100 µM
- TGI [7]: > 100 µM
- TGI [8]: > 100 µM
- TGI [9]: > 100 µM
- TGI [54]: > 100 µM
- TGI [10]: > 100 µM
- TGI [11]: > 100 µM
- TGI [55]: > 100 µM
- TGI [12]: > 100 µM
- TGI [13]: > 100 µM
- TGI [14]: > 100 µM
- TGI [15]: > 100 µM
- TGI [16]: > 100 µM
- TGI [17]: > 100 µM
- TGI [18]: > 100 µM
- TGI [19]: > 100 µM
- TGI [20]: > 100 µM
- TGI [21]: > 100 µM
- TGI [22]: > 100 µM
- TGI [23]: > 100 µM
- TGI [24]: > 100 µM
- TGI [25]: > 100 µM
- TGI [26]: > 100 µM
- TGI [27]: > 100 µM
- TGI [28]: > 100 µM
- TGI [56]: > 100 µM
- TGI [29]: > 100 µM
- TGI [30]: > 100 µM
- TGI [31]: > 100 µM
- TGI [32]: > 100 µM
- TGI [33]: > 100 µM
- TGI [34]: > 100 µM
- TGI [35]: > 100 µM
- TGI [36]: > 100 µM
- TGI [37]: > 100 µM
- TGI [38]: > 100 µM
- TGI [39]: > 100 µM
- TGI [40]: > 100 µM
- TGI [41]: > 100 µM
- TGI [42]: > 100 µM
- TGI [57]: > 100 µM
- TGI [43]: > 100 µM
- TGI [58]: > 100 µM
- TGI [44]: > 100 µM
- TGI [45]: > 100 µM
- TGI [46]: > 100 µM
- TGI [47]: > 100 µM
- TGI [48]: > 100 µM
- TGI [49]: > 100 µM
- TGI [50]: > 100 µM
- TGI [59]: > 100 µM
- TGI [51]: > 100 µM
- TGI [52]: > 100 µM
